{
  "source": "paper PMC5218480",
  "about": "(PLoS ONE, 2017)",
  "test_system": "MV-4-11 cells",
  "experiment": "Gene expression microarray analysis (Affymetrix PrimeView) and GSEA",
  "assay_type": "cell-based, human",
  "set-up": "RFU PODN (11730768_x_at) / Fold change /veh PODN (11730768_x_at) / RFU LINC00158 (11744669_a_at) / Fold change /veh LINC00158 (11744669_a_at) / RFU DUSP10 (11751237_a_at) / Fold change /veh DUSP10 (11751237_a_at) / RFU ID3 (11757404_x_at) / Fold change /veh ID3 (11757404_x_at) / RFU PLEKHG5 (11737974_s_at) / Fold change /veh PLEKHG5 (11737974_s_at) / RFU LRRC4B (11730491_at) / Fold change /veh LRRC4B (11730491_at) / RFU GIMAP4 (11747438_a_at) / Fold change /veh GIMAP4 (11747438_a_at) / RFU KRT8 (11758183_x_at) / Fold change /veh KRT8 (11758183_x_at) / RFU CNN1 (11734310_a_at) / Fold change /veh CNN1 (11734310_a_at) / RFU VPS37D (11726825_at) / Fold change /veh VPS37D (11726825_at) / RFU C10orf10 (11716522_x_at) / Fold change /veh C10orf10 (11716522_x_at) / RFU KIR2DL2 /// KIR2DL4 /// KIR2DL5A /// KIR2DL5B /// KIR2DS1 /// KIR2DS2 /// KIR2DS3 /// KIR2DS4 /// KIR3DL3 /// KIR3DL3 /// KIR3DS1 (11738374_at) / Fold change /veh KIR2DL2 /// KIR2DL4 /// KIR2DL5A /// KIR2DL5B /// KIR2DS1 /// KIR2DS2 /// KIR2DS3 /// KIR2DS4 /// KIR3DL3 /// KIR3DL3 /// KIR3DS1 (11738374_at) / RFU C1QL1 (11718748_at) / Fold change /veh C1QL1 (11718748_at) / RFU TMPRSS4 (11747572_a_at) / Fold change /veh TMPRSS4 (11747572_a_at) / RFU HAMP (11756126_x_at) / Fold change /veh HAMP (11756126_x_at) / RFU RNFT2 (11725882_a_at) / Fold change /veh RNFT2 (11725882_a_at) / RFU NR4A2 (11747474_a_at) / Fold change /veh NR4A2 (11747474_a_at) / RFU ABCC12 (11746883_a_at) / Fold change /veh ABCC12 (11746883_a_at) / RFU TMEM136 (11760407_x_at) / Fold change /veh TMEM136 (11760407_x_at) / RFU CLDN22 /// WWC2 (11732394_at) / Fold change /veh CLDN22 /// WWC2 (11732394_at) / RFU HLA-DPB1 (11760878_x_at) / Fold change /veh HLA-DPB1 (11760878_x_at) / RFU SPINT1 (11716480_a_at) / Fold change /veh SPINT1 (11716480_a_at) / RFU GAP43 (11754022_s_at) / Fold change /veh GAP43 (11754022_s_at) / RFU A4GNT (11735810_at) / Fold change /veh A4GNT (11735810_at) / RFU PRB3 (11715151_x_at) / Fold change /veh PRB3 (11715151_x_at) / RFU TUBB4B (11761932_at) / Fold change /veh TUBB4B (11761932_at) / RFU CAPN14 (11732068_a_at) / Fold change /veh CAPN14 (11732068_a_at) / RFU TMCC2 (11721928_a_at) / Fold change /veh TMCC2 (11721928_a_at) / RFU IRGQ (11745062_a_at) / Fold change /veh IRGQ (11745062_a_at) / RFU FAM174B (11720279_a_at) / Fold change /veh FAM174B (11720279_a_at) / RFU TMPRSS4 (11748680_a_at) / Fold change /veh TMPRSS4 (11748680_a_at) / RFU FAM212B (11763350_a_at) / Fold change /veh FAM212B (11763350_a_at) / RFU PLEKHG5 (11743358_a_at) / Fold change /veh PLEKHG5 (11743358_a_at) / RFU ZSCAN30 (11745921_a_at) / Fold change /veh ZSCAN30 (11745921_a_at) / RFU CMKLR1 (11741424_a_at) / Fold change /veh CMKLR1 (11741424_a_at) / RFU LOC101060620 /// MAPK8IP1 (11723275_at) / Fold change /veh LOC101060620 /// MAPK8IP1 (11723275_at) / RFU SPTSSB (11747773_x_at) / Fold change /veh SPTSSB (11747773_x_at) / RFU PRSS12 (11739890_at) / Fold change /veh PRSS12 (11739890_at) / RFU BIN1 (11741810_x_at) / Fold change /veh BIN1 (11741810_x_at) / RFU WNT11 (11732464_a_at) / Fold change /veh WNT11 (11732464_a_at) / RFU C10orf10 (11716521_a_at) / Fold change /veh C10orf10 (11716521_a_at) / RFU C5orf56 (11738089_at) / Fold change /veh C5orf56 (11738089_at) / RFU CYB561 (11721691_x_at) / Fold change /veh CYB561 (11721691_x_at) / RFU ANKRD19P (11752326_a_at) / Fold change /veh ANKRD19P (11752326_a_at) / RFU OR2T12 /// OR2T33 /// OR2T8 (11738714_s_at) / Fold change /veh OR2T12 /// OR2T33 /// OR2T8 (11738714_s_at) / RFU VCAN (11748164_a_at) / Fold change /veh VCAN (11748164_a_at) / RFU JSRP1 (11732532_at) / Fold change /veh JSRP1 (11732532_at) / RFU KRTAP10-11 (11738290_x_at) / Fold change /veh KRTAP10-11 (11738290_x_at) / RFU MYO3A (11730013_a_at) / Fold change /veh MYO3A (11730013_a_at) / RFU EBF3 (11725865_a_at) / Fold change /veh EBF3 (11725865_a_at) / RFU CAMK2N1 (11719241_x_at) / Fold change /veh CAMK2N1 (11719241_x_at) / RFU C5orf56 (11738088_a_at) / Fold change /veh C5orf56 (11738088_a_at) / RFU OLFML3 (11715873_a_at) / Fold change /veh OLFML3 (11715873_a_at) / RFU LOC100653217 /// NTM (11731650_a_at) / Fold change /veh LOC100653217 /// NTM (11731650_a_at) / RFU MAPK11 (11762145_a_at) / Fold change /veh MAPK11 (11762145_a_at) / RFU FIZ1 (11724087_x_at) / Fold change /veh FIZ1 (11724087_x_at) / RFU OASL (11726364_x_at) / Fold change /veh OASL (11726364_x_at) / RFU SOX15 (11748057_x_at) / Fold change /veh SOX15 (11748057_x_at) / RFU CD79A (11719716_a_at) / Fold change /veh CD79A (11719716_a_at) / RFU HIST1H1D (11736915_at) / Fold change /veh HIST1H1D (11736915_at) / RFU CASKIN2 (11723855_a_at) / Fold change /veh CASKIN2 (11723855_a_at) / RFU LOC730098 (11760151_x_at) / Fold change /veh LOC730098 (11760151_x_at) / RFU OR4N2 (11742367_at) / Fold change /veh OR4N2 (11742367_at) / RFU PRRT2 (11749266_a_at) / Fold change /veh PRRT2 (11749266_a_at) / RFU SNX32 (11753110_a_at) / Fold change /veh SNX32 (11753110_a_at) / RFU CDHR5 (11726645_a_at) / Fold change /veh CDHR5 (11726645_a_at) / RFU RCAN1 (11760418_a_at) / Fold change /veh RCAN1 (11760418_a_at) / RFU FAM167A (11723789_a_at) / Fold change /veh FAM167A (11723789_a_at) / RFU FAM26E (11764081_at) / Fold change /veh FAM26E (11764081_at) / RFU ISYNA1 (11749810_s_at) / Fold change /veh ISYNA1 (11749810_s_at) / RFU ACY1 (11761880_at) / Fold change /veh ACY1 (11761880_at) / RFU 11764098_at / Fold change /veh 11764098_at / RFU SAMD14 (11745864_x_at) / Fold change /veh SAMD14 (11745864_x_at) / RFU NPB (11741838_a_at) / Fold change /veh NPB (11741838_a_at) / RFU TMPRSS6 (11731388_a_at) / Fold change /veh TMPRSS6 (11731388_a_at) / RFU KRTAP10-2 (11738614_at) / Fold change /veh KRTAP10-2 (11738614_at) / RFU ARHGAP8 /// PRR5-ARHGAP8 (11727945_x_at) / Fold change /veh ARHGAP8 /// PRR5-ARHGAP8 (11727945_x_at) / RFU KRTAP5-7 /// NADSYN1 (11734609_at) / Fold change /veh KRTAP5-7 /// NADSYN1 (11734609_at) / RFU RASL12 (11751679_a_at) / Fold change /veh RASL12 (11751679_a_at) / RFU CDKN2B (11736163_a_at) / Fold change /veh CDKN2B (11736163_a_at) / RFU PRF1 (11729649_at) / Fold change /veh PRF1 (11729649_at) / RFU, ZNF638 /// ZNF638-IT1 / Fold change vs veh, ZNF638 /// ZNF638-IT1 / RFU, PANK3 / Fold change vs veh, PANK3 / RFU, SH3YL1 / Fold change vs veh, SH3YL1 / RFU, ZEB2 / Fold change vs veh, ZEB2 / RFU, NRIP1 / Fold change vs veh, NRIP1 / RFU, PTTG1IP / Fold change vs veh, PTTG1IP / RFU, CAPN2 / Fold change vs veh, CAPN2 / RFU, MED14 / Fold change vs veh, MED14 / RFU, SNORA58 / Fold change vs veh, SNORA58 / RFU, C1orf63 / Fold change vs veh, C1orf63 / RFU, LRRFIP1 / Fold change vs veh, LRRFIP1 / RFU, NDUFAF7 / Fold change vs veh, NDUFAF7 / RFU, SLC12A2 / Fold change vs veh, SLC12A2 / RFU, IBTK / Fold change vs veh, IBTK / RFU, ESF1 / Fold change vs veh, ESF1 / Fold change vs veh, TMEM50B / RFU, TAOK1 / Fold change vs veh, TAOK1 / RFU, ACBD3 / Fold change vs veh, ACBD3 / RFU, TMA16 / Fold change vs veh, TMA16 / RFU, RWDD3 / Fold change vs veh, RWDD3 / RFU, BCAT1 / Fold change vs veh, BCAT1 / RFU, EDEM3 / Fold change vs veh, EDEM3 / RFU, TMEM33 / Fold change vs veh, TMEM33 / RFU, WDR75 / Fold change vs veh, WDR75 / RFU, AHCTF1 / Fold change vs veh, AHCTF1 / RFU, TFRC / Fold change vs veh, TFRC / RFU, ZDHHC17 / Fold change vs veh, ZDHHC17 / RFU, NOM1 / Fold change vs veh, NOM1 / RFU, ARL8B / Fold change vs veh, ARL8B / RFU, ZBTB11 / Fold change vs veh, ZBTB11 / RFU, TAMM41 / Fold change vs veh, TAMM41 / RFU, KIAA1704 /// LOC100996395 / Fold change vs veh, KIAA1704 /// LOC100996395 / RFU, ING1 / Fold change vs veh, ING1 / RFU, TRMT61B / Fold change vs veh, TRMT61B / RFU, FUBP3 / Fold change vs veh, FUBP3 / RFU, TP53 / Fold change vs veh, TP53 / RFU, TNKS2 / Fold change vs veh, TNKS2 / RFU, ZFP14 / Fold change vs veh, ZFP14 / RFU, ACTR2 / Fold change vs veh, ACTR2 / RFU, PPP3R1 / Fold change vs veh, PPP3R1 / RFU, PIK3R1 / Fold change vs veh, PIK3R1 / RFU, HNRNPA1 / Fold change vs veh, HNRNPA1 / RFU, RNF170 / Fold change vs veh, RNF170 / RFU, ZNF28 / Fold change vs veh, ZNF28 / RFU, RNGTT / Fold change vs veh, RNGTT / RFU, OGT / Fold change vs veh, OGT / RFU, BRD1 / Fold change vs veh, BRD1 / RFU, MARS / Fold change vs veh, MARS / RFU, ZNF655 / Fold change vs veh, ZNF655 / RFU, FAHD1 / Fold change vs veh, FAHD1 / RFU, BDP1 / Fold change vs veh, BDP1 / RFU, LRRCC1 / Fold change vs veh, LRRCC1 / RFU, ARID1A / Fold change vs veh, ARID1A / RFU, ZNF146 / Fold change vs veh, ZNF146 / RFU, ZNF330 / Fold change vs veh, ZNF330 / RFU, GPN3 / Fold change vs veh, GPN3 / RFU, C9orf123 / Fold change vs veh, C9orf123 / RFU, N4BP2L2 / Fold change vs veh, N4BP2L2 / RFU, ARFIP1 / Fold change vs veh, ARFIP1 / RFU, FAM179B / Fold change vs veh, FAM179B / RFU, BCL10 / Fold change vs veh, BCL10 / RFU, UHRF1BP1L / Fold change vs veh, UHRF1BP1L / RFU, BET1 / Fold change vs veh, BET1 / RFU, CNOT2 / Fold change vs veh, CNOT2 / RFU, ZNF268 / Fold change vs veh, ZNF268 / Fold change vs veh, ZNF507 / RFU, DGCR2 / Fold change vs veh, DGCR2 / RFU, WDSUB1 / Fold change vs veh, WDSUB1 / Fold change vs veh, HSP90B1 /// MIR3652 / RFU, ADSS / Fold change vs veh, ADSS / RFU, GK / Fold change vs veh, GK / RFU, ZNF148 / Fold change vs veh, ZNF148 / RFU, TAF9 / Fold change vs veh, TAF9 / RFU, SLC1A5 / Fold change vs veh, SLC1A5 / RFU, SLMO2 / Fold change vs veh, SLMO2 / RFU, ABCC4 / Fold change vs veh, ABCC4 / RFU, LOC101060439 /// RAP1B / Fold change vs veh, LOC101060439 /// RAP1B / RFU, RFX7 / Fold change vs veh, RFX7 / RFU, GTPBP10 / Fold change vs veh, GTPBP10 / RFU, CNEP1R1 / Fold change vs veh, CNEP1R1 / RFU, BIVM-ERCC5 /// ERCC5 / Fold change vs veh, BIVM-ERCC5 /// ERCC5 / RFU, ILF3 / Fold change vs veh, ILF3 / RFU 11762660_at / Fold change /veh 11762660_at / RFU VCAN (11757783_s_at) / Fold change /veh VCAN (11757783_s_at) / RFU DDX43 (11728927_at) / Fold change /veh DDX43 (11728927_at) / RFU KRT8 (11758188_x_at) / Fold change /veh KRT8 (11758188_x_at) / RFU NKD1 (11759106_at) / Fold change /veh NKD1 (11759106_at) / RFU SRD5A1 (11742802_a_at) / Fold change /veh SRD5A1 (11742802_a_at) / RFU TPSAB1 /// TPSB2 (11721975_s_at) / Fold change /veh TPSAB1 /// TPSB2 (11721975_s_at) / RFU GSTM3 (11746129_a_at) / Fold change /veh GSTM3 (11746129_a_at) / RFU IL23R (11737362_x_at) / Fold change /veh IL23R (11737362_x_at) / RFU TMEM51 (11727254_a_at) / Fold change /veh TMEM51 (11727254_a_at) / RFU PIWIL2 (11732686_x_at) / Fold change /veh PIWIL2 (11732686_x_at) / RFU ORM1 (11744905_x_at) / Fold change /veh ORM1 (11744905_x_at) / RFU CCDC152 (11743942_at) / Fold change /veh CCDC152 (11743942_at) / RFU ECM1 (11717891_a_at) / Fold change /veh ECM1 (11717891_a_at) / RFU IL23R (11748794_a_at) / Fold change /veh IL23R (11748794_a_at) / RFU TNFAIP8L3 (11732012_x_at) / Fold change /veh TNFAIP8L3 (11732012_x_at) / RFU MBOAT4 (11741988_at) / Fold change /veh MBOAT4 (11741988_at) / RFU 11764193_at / Fold change /veh 11764193_at / RFU TMEM53 (11763286_at) / Fold change /veh TMEM53 (11763286_at) / RFU MAGEB2 (11727129_at) / Fold change /veh MAGEB2 (11727129_at) / RFU TMEM200A (11744735_a_at) / Fold change /veh TMEM200A (11744735_a_at) / RFU CCDC152 (11751479_a_at) / Fold change /veh CCDC152 (11751479_a_at) / RFU FAM211A (11726209_a_at) / Fold change /veh FAM211A (11726209_a_at) / RFU RGS16 (11746705_a_at) / Fold change /veh RGS16 (11746705_a_at) / RFU VCAN (11755009_s_at) / Fold change /veh VCAN (11755009_s_at) / RFU RHOB (11743442_s_at) / Fold change /veh RHOB (11743442_s_at) / RFU RGS16 (11720943_a_at) / Fold change /veh RGS16 (11720943_a_at) / RFU RGS16 (11720944_at) / Fold change /veh RGS16 (11720944_at) / RFU, VPS4B / Fold change vs veh, VPS4B / RFU, CREB1 / Fold change vs veh, CREB1 / RFU, DNAJC13 / Fold change vs veh, DNAJC13 / RFU, GNAQ / Fold change vs veh, GNAQ / RFU, CDK5R1 / Fold change vs veh, CDK5R1 / RFU, ZRANB3 / Fold change vs veh, ZRANB3 / RFU, CUL4A / Fold change vs veh, CUL4A / RFU, CCNY / Fold change vs veh, CCNY / RFU, UFL1 / Fold change vs veh, UFL1 / RFU, COG3 / Fold change vs veh, COG3 / RFU, DIAPH2 / Fold change vs veh, DIAPH2 / RFU, SKA2 / Fold change vs veh, SKA2 / RFU, AFF3 / Fold change vs veh, AFF3 / RFU, LMF1 / Fold change vs veh, LMF1 / RFU, IPO11 / Fold change vs veh, IPO11 / RFU, DFFB / Fold change vs veh, DFFB / RFU, FOXP1 / Fold change vs veh, FOXP1 / RFU, CARD8 / Fold change vs veh, CARD8 / RFU, STRN3 / Fold change vs veh, STRN3 / RFU, ADK / Fold change vs veh, ADK / RFU, RASSF2 / Fold change vs veh, RASSF2 / RFU, WIPF1 / Fold change vs veh, WIPF1 / RFU, LARP1B / Fold change vs veh, LARP1B / RFU, RASA1 / Fold change vs veh, RASA1 / RFU, RB1 / Fold change vs veh, RB1 / RFU, PPFIA1 / Fold change vs veh, PPFIA1 / RFU, MAT2A / Fold change vs veh, MAT2A / RFU, CCT5 / Fold change vs veh, CCT5 / RFU, WDR92 / Fold change vs veh, WDR92 / RFU, CUX1 / Fold change vs veh, CUX1 / RFU, TTC7A / Fold change vs veh, TTC7A / RFU, TMEM135 / Fold change vs veh, TMEM135 / RFU, DEPTOR / Fold change vs veh, DEPTOR / RFU, CPM / Fold change vs veh, CPM / RFU, DNAJB6 / Fold change vs veh, DNAJB6 / RFU, CACNA2D3 / Fold change vs veh, CACNA2D3 / RFU, DTX4 / Fold change vs veh, DTX4 / RFU, TFCP2 / Fold change vs veh, TFCP2 / RFU, GMCL1 /// GMCL1P1 / Fold change vs veh, GMCL1 /// GMCL1P1 / RFU, AEBP2 / Fold change vs veh, AEBP2 / RFU, SNHG1 /// SNORD22 /// SNORD25 /// SNORD26 /// SNORD27 /// SNORD28 /// SNORD29 /// SNORD31 / Fold change vs veh, SNHG1 /// SNORD22 /// SNORD25 /// SNORD26 /// SNORD27 /// SNORD28 /// SNORD29 /// SNORD31 / Fold change (Aza/veh), C12orf56 (ProbeSet 11735607_a_at) / Fold change (ACY-1035/veh), C12orf56 (ProbeSet 11735607_a_at) / Fold change (Aza/veh), FGFR1OP (ProbeSet 11751329_s_at) / Fold change (ACY-1035/veh), FGFR1OP (ProbeSet 11751329_s_at) / Fold change (Aza/veh), VPS36 (ProbeSet 11739960_a_at) / Fold change (ACY-1035/veh), VPS36 (ProbeSet 11739960_a_at) / RFU SYPL1 (11715823_x_at) / Fold change /veh SYPL1 (11715823_x_at) / RFU IGFBP7 (11715501_s_at) / Fold change /veh IGFBP7 (11715501_s_at) / RFU REEP3 (11722064_at) / Fold change /veh REEP3 (11722064_at) / RFU IGLL1 (11728026_x_at) / Fold change /veh IGLL1 (11728026_x_at): dose or concentration left out as unconfirmed",
  "conditions": "ProbeSet 11724763_s_at; LIST D",
  "data": [
    {"smiles": "Nc1ncn([C@@H]2O[C@H](CO)[C@@H](O)[C@H]2O)c(=O)n1", "note": "[azacitidine]", "values": [
      {"measurement": "Fold change vs veh, DEPTOR", "value": 0.65}
    ]}
  ]
}
